Tested on: cotton aphids (Aphis gossypil)
Assay: Test method 1: foliar spray on cucumber seedlings infested with cotton aphids
Assay type: in vivo
Settings: 200 ppm, spray 10 mL/seedling, counted 5 days after spraying, 25° C.
Protocol: Next, Test Examples are used to show effects of the Present compounds on harmful arthropods. In the following Test Examples, the tests were carried out at 25° C. […] Cucumber (Cucumis sativus) seedlings (on the developmental stage of the second true leaf) are planted in a container and approximately 30 cotton aphids (Aphis gossypil) (all stages of life) are released onto the cucumber seedlings. After 1 day, each of said diluted solutions is sprayed into the seedlings in a ratio of 10 mL/seedling. After additional 5 days, the number of the surviving insects is examined and the controlling value is calculated by the following equation. Controlling value (%)={1-(Cb×Tai)/(Cai×Tb)}×100 wherein the symbols in the equation represent the following meanings. • Cb: Number of the test insects in non-treated area; • Cai: Number of the surviving insects at the time of the investigation in non-treated area; • Tb: Number of the test insects in treated area; • Tai: Number of the surviving insects at the time of the investigation in treated area; Here, the “non-treated area” represents an area where the same treatment procedure as that of the treated area is done except for not using each test compound.

SMILES: CCS(=O)(=O)c1c(-n2nc3ccc(C(F)(F)F)cn3c2=O)nc2ccc(C(F)(F)F)cn12 [compound 2]
- controlling value: ≥ 90%

Reference: patent US12234247B2, “Heterocyclic compound and harmful arthropod-controlling composition containing same” (SUMITOMO CHEMICAL COMPANY, LIMITED, priority 2019, dated 2025)
